# Measurements: US11219611B2 (Ocera Therapeutics, Inc., priority 2015, dated 2022)
# Assays:
# [1] = Phase 1 single-dose crossover study in healthy subjects: plasma PAA and PAGN pharmacokinetics
# Protocol: Plasma samples were analyzed for concentrations of phenylacetic acid (PAA), phenylacetylglutamine (PAGN) and ornithine (ORN) using a validated LC-MS/MS method. All urine samples were analyzed for concentrations of PAGN using a validated LC-MS/MS method.
# Pharmacokinetics: Plasma concentration vs. time profiles of phenylacetate, ornithine, and phenylacetylglutamine following a single oral dose of each of the study drug were analyzed by noncompartmental PK methods. Pharmacokinetic parameters that were determined include Cmax, tmax, AUC0-t, AUC0-∞, C12 and t1/2.
# [2] = Phase 1 study in healthy subjects: urinary excretion of PAGN over 24 hours; assay type: in vivo, human; settings: single oral dose; for Percent PAA Dose Excreted over 24 hours: urine as PAGN
# Protocol: Plasma samples were separated by centrifugation within 1 hour of blood collection and stored at approximately −80° C. until analyzed. The total urine volume for each collection interval were measured and recorded and aliquots of urine were stored at approximately −80° C. until analyzed.
# hepatic encephalopathy = settings: cited from earlier work
# ammonia = settings: clinical study reported by Jalan et al. 2007; cited from earlier work
Compound,time after dosing at which mean plasma PAGN Cmax occurred ([1]; single oral dose (10 g extended-release formulation or 6 mL RAVICTI)),"mean maximum concentration (Cmax) of plasma PAA ([1]; single oral dose (10 g extended-release formulation or 6 mL RAVICTI, each about 5 g PAA equivalent))",PAA converted to PAGN excretion over 24 hours (conversion efficiency) ([2]; Table 2),Percent PAA Dose Excreted over 24 hours ([2]; mean) [%],Percent PAA Dose Excreted over 24 hours ([2]; median) [%],"Total PAGN Amount Excreted over 24 hours ([2]; urine, mean) [G]","PAA Equivalents Excreted over 24 hours ([2]; urine, median) [G]","Total PAGN Amount Excreted over 24 hours ([2]; urine, median) [G]","incidence of hepatic encephalopathy events (hepatic encephalopathy; clinical studies, 6 mL twice daily)","efficacy for the treatment of hepatic encephalopathy (hepatic encephalopathy; clinical trials (Rockey et al., Hepatology 2014))",ammonia lowering (ammonia)
"O=C(CCCc1ccccc1)OCC(COC(=O)CCCc1ccccc1)OC(=O)CCCc1ccccc1 [RAVICTI®, glycerol phenylbutyrate]",approximately 5 hours,approximately 10 μg/mL,about 40%,42.7,42.1,4.11,2.09,4.06,lower the incidence of hepatic encephalopathy events,preliminary efficacy,–
L-ornithine phenylacetate,–,–,–,–,–,–,–,–,–,–,useful in ammonia lowering
